In PMC9145741, “Bioprospecting for Thermozymes and Characterization of a Novel Lipolytic Thermozyme Belonging to the SGNH/GDSL Family of Hydrolases” (International Journal of Molecular Sciences, 2022):

System: T1, LipB12_A11
T1 construct: EcoRV fosmid fragment subcloned in pJET1.2, E. coli T7 Express; no tag mentioned; heat step, ammonium sulphate, Superdex 75
Experiment: p-nitrophenol release at […] nm, Michaelis-Menten non-linear regression
Assay type: biochemical
Details: 60 °C, pH 9; 0.002-2 mM substrate

Km: 17.3 ± 3.51 µM
Structure (SMILES): CCCCCCCCCCCC(=O)Oc1ccc([N+](=O)[O-])cc1 [pNP-laurate]
